Measured values published in EP4620954A1, “CDK2 INHIBITOR, PREPARATION METHOD THEREFOR, AND USE THEREOF” (Shandong Luye Pharmaceutical Co., Ltd., priority 2022, dated 2024).
Where two headings read alike, the source gives them in different places.

Tests used:
HCT116 cells = test: Antagonistic effect assay against HCT116 cell proliferation (CellTitle-Glo); format: cell-based; settings: Homo sapiens, HCT-116, 72 h treatment, 0.01-10.00 µM, read-out: Antiproliferative IC50
Protocol: Frozen HCT116 cells were rapidly transferred from liquid nitrogen to a 37 °C water bath and rapidly shaken for thawing. The cell suspension was transferred to a 15 mL centrifuge tube and centrifuged at 1500 rpm for 5 min, and the supernatant was discarded. The cell pellet was resuspended in RPMI-1640 complete medium (containing 10% fetal bovine serum and 1% penicillin/streptomycin) and transferred to a cell culture dish containing 10 mL of medium. The cells were cultured in an incubator at 37 °C/5% CO2. The cells were passaged after adhesion to the wall.
HCT116 cells in the logarithmic growth phase and in good condition were taken, digested with a trypsin solution, resuspended in a certain amount of RPMI-1640 complete medium to form a single-cell suspension, counted on a cell counting plate, and seeded into a 96-well white plate at a density of 800 cells/well. The plate was left to stand for 5 min and then incubated in an incubator at 37 °C/5% CO2 overnight. The next day, the cells were treated with the compound at different concentrations, and the control group was treated with DMSO at the corresponding concentration. The compound, dissolved in DMSO, was diluted in RPMI-1640 complete medium at a ratio of 1:1000 to obtain final concentrations of 10.00 µM, 3.33 µM, 1.11 µM, 0.37 µM, 0.12 µM, 0.04 µM, and 0.01 µM. Each group was set up with 3 replicate wells, and 100 µL of the treatment solution was added to each well. The plate was incubated in an incubator at 37 °C/5% CO2 for 72 h.
After 72 h of treatment, the CellTitle-Glo assay was performed. 100 µL of CellTitle-Glo solution was added to each well of the control and treatment groups. The plate was mixed on an oscillator for 2 min to induce cell lysis. The 96-well plate was incubated at room temperature for 10 min to stabilize the luminescence signal value. The luminescence signal was measured using a microplate reader. The DMSO-treated cell group was used as the control group, and 50% inhibitory concentration (IC50) was calculated according to the median effect equation as follows: [formula]
The IC50 values of the compounds were calculated using GraphPad Prism nonlinear fitting equation. Table 2. Results for the inhibitory effect of the compounds of the present disclosure on HCT116 cell proliferation

[1] = In-vitro liver microsomal stability, dog; format: in vitro ADME; settings: dog liver microsomes 0.5 mg/mL, 1 µM, NADPH 1 mM, 37 °C
Protocol: (§1) Method: The metabolic stability of test substances was evaluated by using human, dog, and SD rat liver microsomes. The test substances were incubated with liver microsomes from different species and NADPH in a water bath at 37 °C. In the incubation system, the final concentration of the test or control sample was 1 µM, the final concentration of liver microsomes was 0.5 mg/mL, the final concentration of NADPH was 1 mM, and the final concentration of MgCl2 was 3 mM. At designated time points (5 min, 10 min, 20 min, 30 min, and 60 min), the reaction was stopped by adding a cold acetonitrile solution containing tolbutamide (at a concentration of 200 ng/mL) as an internal standard. For the 0-min sample, the stop solution was added before the addition of the NADPH working solution. Testosterone and dextromethorphan were used as positive control samples in the same conditions to assess the stability and reliability of the system. After sample pretreatment, semiquantitative analysis was performed using the LC-MS/MS method. The retention times of the analytes and internal standard, the acquisition of chromatograms and the integration of chromatograms were processed using software Analyst (AB Sciex, Framingham, Massachusetts, USA). The remaining percentage of the test samples after 60 min of incubation was calculated, and the test results are shown in Table 3. Table 3. Test data for the compounds of the present disclosure in human, dog, and rat liver microsomes

[2] = In-vitro liver microsomal stability, human; format: in vitro ADME; settings: human liver microsomes 0.5 mg/mL, 1 µM, NADPH 1 mM, 37 °C
Protocol: as §1

[3] = In-vitro liver microsomal stability, rat; format: in vitro ADME; settings: SD rat liver microsomes 0.5 mg/mL, 1 µM, NADPH 1 mM, 37 °C
Protocol: as §1

CDK2/Cyclin E1 = target: T1, CDK2/Cyclin E1 (Homo sapiens, UniProt P24941); test: CDK2 kinase antagonistic activity assay (TR-FRET); format: biochemical
T1 construct: purchased Invitrogen PV6296
Protocol: (§2) Compounds were dissolved in DMSO and serially diluted 3-fold to generate 11 concentrations. 100 nL of each compound was added to 384-well plates, followed by the addition of 5 µL of 2× CDK2/Cyclin E1 or CDK1/Cyclin B enzyme mixed solution. 5 µL of buffer (50 mM Hepes (pH 7.5), 10 mM MgCl2, 1 mM EDTA, 0.01% Brij-35, 2 mM DTT (prepared freshly)) was added to the complete inhibition control wells. The plates were centrifuged at 1000 rpm for 30 s and incubated at 23 °C for 15 min. Then, 5 µL of 2× MLight-MBP peptide (containing 10 µM ATP) was added to each well of each assay plate. The plates were centrifuged again at 1000 rpm for 30 s and incubated at 23 °C for 90 min.
After the incubation was completed, the reaction was stopped with a detection buffer containing 15 mM EDTA and 2 nM Eu-anti-P-MBP antibody. After centrifugation at 1000 rpm for about 1 min, the plates were incubated at 23 °C for 60 min and read on Perkin Elmer Envision. The TR-FRET ratio (value at 665 nm/value at 615 nm) was automatically calculated by Envision.
(§3) The IC50 values of the compounds were calculated using GraphPad Prism nonlinear fitting equation. Table 1. Kinase activity assay

CDK1/Cyclin B = target: T2, CDK1/Cyclin B (Homo sapiens, UniProt P06493); test: CDK1 kinase activity assay (TR-FRET); format: biochemical
T2 construct: purchased Invitrogen PR4768C
T2 sequence (P06493 whole entry): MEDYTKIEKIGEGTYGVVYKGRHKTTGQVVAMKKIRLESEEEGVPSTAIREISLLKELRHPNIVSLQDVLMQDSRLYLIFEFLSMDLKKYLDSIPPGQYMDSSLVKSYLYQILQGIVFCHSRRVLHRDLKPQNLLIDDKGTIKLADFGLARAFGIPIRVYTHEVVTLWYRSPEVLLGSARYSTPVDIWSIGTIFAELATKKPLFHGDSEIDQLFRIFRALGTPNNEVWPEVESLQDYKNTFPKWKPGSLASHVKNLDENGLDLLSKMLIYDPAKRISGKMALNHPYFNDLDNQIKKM
T2 sequence (P14635 whole entry partner): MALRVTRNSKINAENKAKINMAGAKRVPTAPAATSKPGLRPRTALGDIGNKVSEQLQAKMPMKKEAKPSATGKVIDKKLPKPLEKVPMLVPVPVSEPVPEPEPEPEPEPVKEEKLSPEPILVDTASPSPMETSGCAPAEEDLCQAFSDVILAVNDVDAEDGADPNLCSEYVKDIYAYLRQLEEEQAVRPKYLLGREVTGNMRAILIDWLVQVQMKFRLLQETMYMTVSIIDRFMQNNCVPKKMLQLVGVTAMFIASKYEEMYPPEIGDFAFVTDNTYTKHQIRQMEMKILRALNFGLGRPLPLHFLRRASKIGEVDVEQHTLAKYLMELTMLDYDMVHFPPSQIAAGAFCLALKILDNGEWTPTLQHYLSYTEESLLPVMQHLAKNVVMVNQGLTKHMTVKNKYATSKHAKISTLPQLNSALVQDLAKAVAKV
Protocol: as §2
After the incubation was completed, the reaction was stopped with a detection buffer containing 15 mM EDTA and 2 nM Eu-anti-P-MBP antibody. After centrifugation at 1000 rpm for about 1 min, the plates were incubated at 23 °C for 60 min and read on Perkin Elmer Envision.
as §3

[4] = Permeability and transporter substrate evaluation, Caco-2 monolayer; format: in vitro ADME; settings: human, Caco-2, 2.00 µM, 120 min
Protocol: Cell: Caco-2 cells Instrument: water purification equipment, ELGA LabWate; biosafety cabinet, Nuaire; thermostatic CO2 incubator, Thermo; microplate reader, PerkinElmer; LC-MS/MS, AB SCIEX. Method: The purpose of this study was to determine the two-way permeability of the compounds and evaluate whether they are effluxed and transported by P-glycoprotein (P-gp) using a Caco-2 monolayer cell model. In the experiment, Caco-2 cells were seeded into a 96-well cell plate and cultured for 24 consecutive days for the transport experiment. The compounds were administered bidirectionally at a concentration of 2.00 µM, with or without verapamil. After 120 min of incubation, the samples at the apical end A and the basal end B were collected. The content of the test samples in each sample was measured using the liquid chromatography-tandem mass spectrometry (LC-MS/MS) method. The apparent permeability coefficient and the efflux rate were calculated. Two experimental systems were used successively in this part, with the reference compound (PF-07104091) included. Table 4. Permeability test results

[5] = TR-FRET, peptide mix containing 10 µM ATP, 90 min at 23 °C, read-out: CDK2/Cyclin E1 IC50
[6] = Caco-2, Table 5 experimental system
[7] = TR-FRET, peptide mix containing 10 µM ATP, 90 min at 23 °C, read-out: CDK1/Cyclin B1 IC50
[8] = Caco-2, Table 4 experimental system

Structure (SMILES)	IC50 (HCT116 cells)	IC50 (CDK2/Cyclin E1; [5])	IC50 (CDK1/Cyclin B; [7])	further results
COCc1cc(C(=O)Nc2cc([C@H]3CC[C@@H](OC(=O)N4CC5(CCN(C)CC5)C4)C3)[nH]n2)n(C)n1 [Compound 10]	7.11 µM	0.00871 µM	–	Remaining amount% at 60 min Dog [1]: 95%; Remaining amount% at 60 min Human [2]: 103%; Remaining amount% at 60 min Rat [3]: 92%
CC1(C)CCN1C(=O)O[C@@H]1CO[C@H](c2cc(NC(=O)Cc3cccc(P(C)(C)=O)c3)n[nH]2)C1 [Compound 30]	–	0.00822 µM	–	–
CC(C)NC(=O)O[C@@H]1CC[C@H](c2cc(Nc3ccc(CN4CCN(C)CC4)c(F)c3)n[nH]2)C1 [Compound 134]	1.13 µM	0.00214 µM	–	IC50 (CDK1/Cyclin B): 0.664 µM; Papp A→B at 2 h, 2 µM [4, 6]: 7.08 ×10⁻⁶ cm/s; Papp B→A at 2 h, 2 µM [4, 6]: 23.4 ×10⁻⁶ cm/s; efflux ratio at 2 h, 2 µM [4, 6]: 3.3
CC(C)NC(=O)O[C@@H]1CC[C@H](c2cc(Nc3ccc(N4CCN(CC(F)(F)F)CC4)cc3)n[nH]2)C1 [Compound 128]	9.95 µM	–	–	IC50 (CDK2/Cyclin E1): 0.0128 µM
CC(C)NC(=O)O[C@@H]1CC[C@H](c2cc(NC3CCN(S(C)(=O)=O)CC3)n[nH]2)C1 [Compound 8]	> 10 µM	–	3.11 µM	–
CC(C)NC(=O)O[C@@H]1CC[C@H](c2cc(Nc3ccc(N4CCN(CC(F)F)CC4)cc3)n[nH]2)C1 [Compound 127]	9.8 µM	0.0125 µM	–	–
CC1(C)CCN1C(=O)O[C@@H]1CC[C@H](c2cc(NC(=O)Cc3ccc(N4CCCC4=O)cc3)n[nH]2)C1 [Compound 24]	–	0.00258 µM	0.589 µM	Remaining amount% at 60 min Human [2]: 15.4%; Remaining amount% at 60 min Rat [3]: 22.8%
CC(C)NC(=O)O[C@@H]1CC[C@H](c2cc(Nc3ccc(N4CCN(C)CC4)cn3)n[nH]2)C1 [Compound 49]	1.3 µM	0.0107 µM	–	IC50 (CDK1/Cyclin B): 0.724 µM; Papp A→B at 2 h, 2 µM [4, 6]: 2.4 ×10⁻⁶ cm/s; Papp B→A at 2 h, 2 µM [4, 6]: 12.2 ×10⁻⁶ cm/s; efflux ratio at 2 h, 2 µM [4, 6]: 5.09
CC(C)NC(=O)O[C@@H]1CC[C@H](c2cc(Nc3ccc(CN4CCNCC4)cc3)n[nH]2)C1 [Compound 136]	8.43 µM	0.00553 µM	1.02 µM	–
CC(C)NC(=O)O[C@@H]1CC[C@H](c2cc(Nc3ccc(C4CCN(C)CC4)cn3)n[nH]2)C1 [Compound 51]	3.53 µM	0.0069 µM	–	IC50 (CDK1/Cyclin B): 0.154 µM
CCN1CCN(Cc2ccc(Nc3cc([C@H]4CC[C@@H](OC(=O)NC(C)C)C4)[nH]n3)cc2)CC1 [Compound 137]	1.51 µM	0.00374 µM	0.976 µM	–
COCc1cc(C(=O)Nc2nnc([C@H]3CC[C@@H](OC(=O)NC(C)C)C3)s2)n(C)n1 [Compound 42]	–	> 1 µM	–	–
COCc1cc(C(=O)Nc2[nH]nc3c2C[C@@H](OC(=O)NC(C)C)CC3)n(C)n1 [Compound 41]	–	> 1 µM	–	–
COCc1cc(C(=O)Nc2cc(C3CCC(OC(=O)NC(C)C)C3)[nH]n2)n(C)n1 (stereo not shown) [PF-07104091, reference compound]	–	–	–	Papp A→B at 2 h, 2 µM [4, 8]: 0.106 ×10⁻⁶ cm/s; Papp B→A at 2 h, 2 µM [4, 8]: 25.5 ×10⁻⁶ cm/s; efflux ratio at 2 h, 2 µM [4, 8]: 241; Papp A→B at 2 h, 2 µM [4, 6]: 4.3 ×10⁻⁶ cm/s; Papp B→A at 2 h, 2 µM [4, 6]: 37 ×10⁻⁶ cm/s; efflux ratio at 2 h, 2 µM [4, 6]: 8.57
Cn1nc(CS(C)(=O)=O)cc1C(=O)Nc1cc([C@H]2CC[C@@H](OC(=O)N3CCC3(C)C)C2)[nH]n1 [Compound 16]	0.847 µM	0.00016 µM	–	IC50 (CDK1/Cyclin B): 0.00307 µM
COCc1cc(C(=O)Nc2cnc([C@H]3CC[C@@H](OC(=O)NC(C)C)C3)s2)n(C)n1 [Compound 36]	–	> 1 µM	–	–
CC1(C)CCN1C(=O)O[C@@H]1CC[C@H](c2cc(NC(=O)Cc3cccc(P(C)(C)=O)c3)n[nH]2)C1 [Compound 23]	–	0.00501 µM	1.85 µM	–
CCS(=O)(=O)Cc1cc(C(=O)Nc2cc([C@H]3CC[C@@H](OC(=O)NC(C)C)C3)[nH]n2)n(C)n1 [Compound 12]	1.86 µM	0.00061 µM	0.0285 µM	–
C=C(C)c1ccncc1O[C@@H]1CC[C@H](c2cc(NC(=O)Cc3cccc(P(C)(C)=O)c3)n[nH]2)C1 [Compound 25]	–	0.00309 µM	0.0112 µM	–
C=C(C)c1ccncc1O[C@@H]1CC[C@H](c2cc(NC(=O)Cc3ccc(N4CCCC4=O)cc3)n[nH]2)C1 [Compound 26]	0.388 µM	0.00092 µM	0.00027 µM	–
C=C(C)c1ccncc1O[C@@H]1CO[C@H](c2cc(NC(=O)Cc3cccc(P(C)(C)=O)c3)n[nH]2)C1 [Compound 31]	–	0.0236 µM	0.496 µM	–
CC(C)NC(=O)O[C@@H]1CC[C@H](c2cc(NC(=O)c3cc(CS(=O)(=O)C4CC4)nn3C)n[nH]2)C1 [Compound 13]	2.15 µM	0.00337 µM	–	IC50 (CDK1/Cyclin B): 0.0483 µM; Remaining amount% at 60 min Human [2]: 80.0%; Remaining amount% at 60 min Rat [3]: 71.2%
COCc1cc(C(=O)Nc2cc([C@H]3C[C@@H](F)[C@@H](OC(=O)NC(C)C)C3)[nH]n2)n(C)n1 [Compound 11]	1.61 µM	0.00107 µM	–	Remaining amount% at 60 min Dog [1]: 99%; Remaining amount% at 60 min Human [2]: 105%; Remaining amount% at 60 min Rat [3]: 104%
COCc1cc(C(=O)Nc2cc([C@H]3CC[C@@H](OC(=O)NC(C)(C)C#N)C3)[nH]n2)n(C)n1 [Compound 5]	> 10 µM	–	0.845 µM	–
